{
  "source": "paper PMC12123727",
  "about": "(BMC Cancer, 2025)",
  "assay": "Phase 1 plasma pharmacokinetics",
  "type": "in vivo, human",
  "conditions": "for increase of exposure (plasma concentration) with dose: dose range 40–80 mg BID; for AUC(0-t) / AUC(0-inf) / Cmax / half-life / Tmax / MRT last: human, plasma; for AUC(0-t): AUC0-t; for AUC(0-t) / AUC(0-inf) / Cmax: Mean ± SD; for AUC(0-inf): AUC0-∞; for half-life: T1/2, Median; for Tmax: Median; for MRT last: po",
  "key": {"[1]": {"conditions": "C1D7 compared to C1D1, 40–80 mg BID"}, "[2]": {"conditions": "oral, 40 mg, abexinostat continuous administration (BID, 4-h interval) on C1D1, 40 mg (n = 4)"}, "[3]": {"conditions": "oral, 40 mg, abexinostat continuous administration (BID, 4-h interval) on C1D7, 40 mg (n = 4)"}, "[4]": {"conditions": "oral, 60 mg, abexinostat continuous administration (BID, 4-h interval) on C1D1, 60 mg (n = 3)"}, "[5]": {"conditions": "oral, 60 mg, abexinostat continuous administration (BID, 4-h interval) on C1D7, 60 mg (n = 3)"}, "[6]": {"conditions": "oral, 80 mg, abexinostat continuous administration (BID, 4-h interval) on C1D1, 80 mg (n = 4)"}, "[7]": {"conditions": "oral, 80 mg, abexinostat continuous administration (BID, 4-h interval) on C1D7, 80 mg (n = 4)"}},
  "data": [
    {"smiles": "CN(C)Cc1c(C(=O)NCCOc2ccc(C(=O)NO)cc2)oc2ccccc12", "note": "[abexinostat, Abexinostat]", "values": [
      {"measurement": "average accumulation ratio for Cmax (RA-Cmax)", "setting": "[1]", "value": "0.94–1.48"},
      {"measurement": "average accumulation ratio for the AUC (RA-AUC)", "setting": "[1]", "value": "1.16–1.52"},
      {"measurement": "increase of exposure (plasma concentration) with dose", "value": "approximately dose-proportional"},
      {"measurement": "increase of exposure (plasma concentration) with dose", "setting": "listed as Abexinostat", "value": "dose-proportional"},
      {"measurement": "AUC(0-t)", "setting": "[2]", "value": "339 ± 90.9", "unit": "ng·h/mL"},
      {"measurement": "AUC(0-t)", "setting": "[3]", "value": "463 ± 32.5", "unit": "ng·h/mL"},
      {"measurement": "AUC(0-inf)", "setting": "[2]", "value": "361 ± 88.3", "unit": "ng·h/mL"},
      {"measurement": "AUC(0-inf)", "setting": "[3]", "value": "491 ± 43.7", "unit": "ng·h/mL"},
      {"measurement": "Cmax", "setting": "[2]", "value": "98.1 ± 27.6", "unit": "ng/mL"},
      {"measurement": "Cmax", "setting": "[3]", "value": "107 ± 16.3", "unit": "ng/mL"},
      {"measurement": "half-life", "setting": "[2]", "value": 3.69, "unit": "h"},
      {"measurement": "half-life", "setting": "[3]", "value": 4.84, "unit": "h"},
      {"measurement": "Tmax", "setting": "[2]", "value": 1, "unit": "h"},
      {"measurement": "Tmax", "setting": "[3]", "value": 1, "unit": "h"},
      {"measurement": "AUC(0-t)", "setting": "[4]", "value": "521 ± 60.6", "unit": "ng·h/mL"},
      {"measurement": "AUC(0-t)", "setting": "[5]", "value": "600 ± 53.8", "unit": "ng·h/mL"},
      {"measurement": "AUC(0-inf)", "setting": "[4]", "value": "563 ± 69.6", "unit": "ng·h/mL"},
      {"measurement": "AUC(0-inf)", "setting": "[5]", "value": "656 ± 72", "unit": "ng·h/mL"},
      {"measurement": "Cmax", "setting": "[4]", "value": "115 ± 24.2", "unit": "ng/mL"},
      {"measurement": "Cmax", "setting": "[5]", "value": "104 ± 26.9", "unit": "ng/mL"},
      {"measurement": "half-life", "setting": "[4]", "value": 6.28, "unit": "h"},
      {"measurement": "half-life", "setting": "[5]", "value": 6.53, "unit": "h"},
      {"measurement": "Tmax", "setting": "oral, 60 mg, abexinostat continuous administration (BID, 4-h interval) on C1D1, 60 mg (n = 3), abexinostat value footnoted: 0.5 h after second dose", "value": 4.55, "unit": "h"},
      {"measurement": "Tmax", "setting": "[5]", "value": 0.48, "unit": "h"},
      {"measurement": "AUC(0-t)", "setting": "[6]", "value": "603 ± 104", "unit": "ng·h/mL"},
      {"measurement": "AUC(0-t)", "setting": "[7]", "value": "767 ± 140", "unit": "ng·h/mL"},
      {"measurement": "AUC(0-inf)", "setting": "[6]", "value": "625 ± 116", "unit": "ng·h/mL"},
      {"measurement": "AUC(0-inf)", "setting": "[7]", "value": "744 ± 132", "unit": "ng·h/mL"},
      {"measurement": "Cmax", "setting": "[6]", "value": "128 ± 25.3", "unit": "ng/mL"},
      {"measurement": "Cmax", "setting": "[7]", "value": "184 ± 27", "unit": "ng/mL"},
      {"measurement": "half-life", "setting": "[6]", "value": 5.13, "unit": "h"},
      {"measurement": "half-life", "setting": "[7]", "value": 5.03, "unit": "h"},
      {"measurement": "Tmax", "setting": "oral, 80 mg, abexinostat continuous administration (BID, 4-h interval) on C1D1, 80 mg (n = 4), abexinostat value footnoted: 0.97 h after second dose", "value": 4.78, "unit": "h"},
      {"measurement": "Tmax", "setting": "[7]", "value": 2.74, "unit": "h"},
      {"measurement": "MRT last", "setting": "40 mg", "value": 2.8, "unit": "h"},
      {"measurement": "MRT last", "setting": "60 mg", "value": 6.97, "unit": "h"},
      {"measurement": "MRT last", "setting": "80 mg", "value": 3.47, "unit": "h"},
      {"measurement": "accumulation", "setting": "on C1D7", "value": "slight accumulation"},
      {"measurement": "absorption", "setting": "oral", "value": "rapidly absorbed"}
    ]}
  ]
}
